This passage reports Activity results from ChEMBL document CHEMBL2331147, “Scutellarin from Scutellaria baicalensis suppresses adipogenesis by upregulating PPARα in 3T3-L1 cells” (J Nat Prod, 2013).

Activity calls are given as the source filed them. The calls are words filed in the database; no cut-off is given here.

Series [1] deals with 3T3-L1. Kind of series: Antiadipogenic activity in mouse 3T3L1 cells assessed as upregulation of PPARalpha mRNA expression after 8 days by RT-PCR analysis. In kind it is functional, cell-based.
Series [2] relates to 3T3-L1. As to the kind of experiment: Antiadipogenic activity in mouse 3T3L1 cells assessed as decrease in intracellular lipid accumulation incubated for 8 days followed by compound wash out measured for 60 mins by Oil Red O staining-based phase contrast microscopic analysis. The class given is functional, cell-based.
Series [3] concerns 3T3-L1. As to the kind of experiment: Antiadipogenic activity in mouse 3T3L1 cells assessed as downregulation of C/EBPalpha mRNA expression after 8 days by RT-PCR analysis. In kind it is functional, cell-based.
In series [4] the test system is 3T3-L1. Kind of series: Effect on PPARdelta mRNA expression in mouse 3T3L1 cells at 10 to 100 uM after 8 days by RT-PCR analysis. In kind it is functional, cell-based.
In series [5] the test system is 3T3-L1. Kind of series: Cytotoxicity against mouse 3T3L1 cells assessed as cell viability at < 100 uM after 48 hrs by MTT assay. The class given is cell-based. As to conditions: 3t3-l1, 48 h. On the technique in general: Formazan colour is commonly taken as a measure of viable cells.
In series [6] the test system is 3T3-L1. As to the kind of experiment: Antiadipogenic activity in mouse 3T3L1 cells assessed as downregulation of LPL mRNA expression at 10 to 100 uM after 8 days by RT-PCR analysis. In kind it is functional, cell-based.
For series [7], the system named is 3T3-L1. Kind of series: Downregulation of C/EBPbeta mRNA expression in mouse 3T3L1 cells at 10 to 100 uM after 8 days by RT-PCR analysis. In kind it is functional, cell-based.
Series [8] relates to 3T3-L1. Kind of series: Antiadipogenic activity in mouse 3T3L1 cells assessed as downregulation of PPARgamma mRNA expression after 8 days by RT-PCR analysis. The class given is functional, cell-based.

As to `O=C(O)[C@H]1O[C@@H](Oc2cc3oc(-c4ccc(O)cc4)cc(=O)c3c(O)c2O)[C@H](O)[C@@H](O)[C@@H]1O` [SCUTELLARIN], the Activity entry in the series on 3T3-L1 [1] was “Dose-dependent effect”; in the series with 3T3-L1 [2] it was “Dose-dependent effect”; in the series on 3T3-L1 [3] it was “Dose-dependent effect”; in the series with 3T3-L1 [5] it was “Non-toxic”; with 3T3-L1 [8] it was “Dose-dependent effect”. Moreover, the outcome with 3T3-L1 [4] and in the series on 3T3-L1 [7] was inactive. Further, the outcome in the series on 3T3-L1 [6] was Active.
